Measurements published in publication PMC5524215 (Journal of clinical pharmacology, 2016).
Like-named read-outs stand apart in the source and are kept apart here. Where a SMILES comes first, the peptide text is derived from it.

Key:
[1] = murine pharmacokinetics; cited from earlier work
[2] = beagle, GLP, 5 mg/kg/dose four times per day (20 mg/kg/day) for 14 days; cited from earlier work
[3] = Single ascending dose pharmacokinetics of intravenous CN-105 in healthy adults
[4] = in vivo, iv
[5] = rodent, GLP, 5 mg/kg/dose four times per day (20 mg/kg/day) for 14 days; cited from earlier work
[6] = Repeated dose pharmacokinetics of intravenous CN-105; type: in vivo, human; details: for Ratio 2/1: AUCTAU2/AUCTAU1, repeated 1 mg/kg i.v. infusions over 30 min; for Ratio 13/1: AUCTAU13/AUCTAU1, repeated 1 mg/kg i.v. infusions over 30 min; for AUCTAU1 / AUCTAU2 / AUCTAU13: repeated 1 mg/kg i.v. infusions over 30 min; for AUCTAU2: dose 2; for AUCTAU13: dose 13
[7] = Safety and tolerability in healthy adult subjects; details: healthy adults, single 0.01-1.0 mg/kg and repeated 1 mg/kg i.v.
[8] = healthy adults, 1 mg/kg i.v. every 6 h for 72 h

SMILES: CC(=O)N[C@H](C(=O)N[C@@H](CO)C(=O)N[C@@H](CCCNC(=N)N)C(=O)N[C@@H](CCCNC(=N)N)C(=O)N[C@@H](CCCNC(=N)N)C(N)=O)C(C)C [CN-105] (Ac-VSRRR-NH2; N-terminus and C-terminus assumed)
- half-life predicted by animal modeling [1]: 0.5 h
- tolerability of repeated intravenous administration [2]: well-tolerated
- observed half-life at higher doses ([3]; healthy adults, i.v., higher doses): 3.6 h
- half-life ([3]; human, plasma, iv): 3.5 h
- AUC(0-inf) ([3]; human, plasma, iv, 0.01 mg/kg): 95.9 ± 20.2 ng·h/mL
- Cmax ([3]; human, plasma, iv, 0.01 mg/kg): 35.7 ± 10.9 ng/mL
- Vd ([3]; human, plasma, iv, 0.01 mg/kg): 29.8 ± 3.2 L
- clearance ([3]; human, plasma, iv, 0.01 mg/kg): 150 mL/min
- AUC(0-inf) ([3]; human, plasma, iv, 0.03 mg/kg): 281 ± 39.6 ng·h/mL
- Cmax ([3]; human, plasma, iv, 0.03 mg/kg): 108 ± 25.5 ng/mL
- Vd ([3]; human, plasma, iv, 0.03 mg/kg): 30.4 ± 8 L
- clearance ([3]; human, plasma, iv, 0.03 mg/kg): 150 mL/min
- AUC(0-inf) ([3]; human, plasma, iv, 0.1 mg/kg): 1130 ± 194 ng·h/mL
- Cmax ([3]; human, plasma, iv, 0.1 mg/kg): 408 ± 129 ng/mL
- Vd ([3]; human, plasma, iv, 0.1 mg/kg): 38.9 ± 12 L
- clearance ([3]; human, plasma, iv, 0.1 mg/kg): 137 mL/min
- AUC(0-inf) ([3]; human, plasma, iv, 0.3 mg/kg): 2670 ± 272 ng·h/mL
- Cmax ([3]; human, plasma, iv, 0.3 mg/kg): 966 ± 209 ng/mL
- Vd ([3]; human, plasma, iv, 0.3 mg/kg): 45.6 ± 11.2 L
- clearance ([3]; human, plasma, iv, 0.3 mg/kg): 147 mL/min
- AUC(0-inf) ([3]; human, plasma, iv, 1 mg/kg): 9550 ± 1280 ng·h/mL
- Cmax ([3]; human, plasma, iv, 1 mg/kg): 3940 ± 507 ng/mL
- Vd ([3]; human, plasma, iv, 1 mg/kg): 38.4 ± 8.1 L
- clearance ([3]; human, plasma, iv, 1 mg/kg): 128 mL/min
- T1/2 ([4]; 0.01 mg/kg): 2.3 ± 0.5
- T1/2 ([4]; 0.03 mg/kg): 2.4 ± 0.5
- T1/2 ([4]; 0.1 mg/kg): 3.3 ± 0.6
- T1/2 ([4]; 0.3 mg/kg): 3.6 ± .4
- T1/2 ([4]; 1 mg/kg): 3.5 ± 0.3
- tolerability of repeated intravenous administration [5]: well-tolerated
- accumulation on repeated dosing ([6]; 1 mg/kg i.v. every 6 h for 72 h, judged by AUCTAU ratios between time points): no significant accumulation
- Ratio 2/1 ([6]; geometric mean): 1.1
- Ratio 2/1 ([6]; mean of subjects): 1.1
- Ratio 2/1 ([6]; median): 1.1
- Ratio 13/1 ([6]; geometric mean): 1.2
- Ratio 13/1 ([6]; mean of subjects): 1.2
- Ratio 13/1 ([6]; median): 1.3
- time at which trough concentrations reached a stable plateau [6, 8]: ≤ 20 h
- time to steady state [6, 8]: ≤ 24 h
- half-life ([6]; human, plasma, iv, 1 mg/kg): 3.6 h
- AUC(0-t) ([6]; human, plasma, iv, 1 mg/kg, AUCTAU1, repeated 1 mg/kg i.v. infusions over 30 min, dose 1, geometric mean): 9540 ng·h/mL
- AUCTAU1 ([6]; dose 1, maximum among subjects): 11431.3
- AUCTAU1 ([6]; dose 1, median): 9911.7
- AUCTAU1 ([6]; dose 1, minimum among subjects): 7425.1
- AUCTAU2 ([6]; geometric mean): 10506.5
- AUCTAU2 ([6]; maximum among subjects): 12581.6
- AUCTAU2 ([6]; median): 10448.8
- AUCTAU2 ([6]; minimum among subjects): 8990.5
- AUCTAU13 ([6]; geometric mean): 11328.6
- AUCTAU13 ([6]; maximum among subjects): 14203.2
- AUCTAU13 ([6]; median): 11600.4
- AUCTAU13 ([6]; minimum among subjects): 9382.1
- changes in serial ECG, vital signs or clinical laboratory tests [7]: No concerning changes were observed
